According to patent US4237116A, “Combination of thiopeptin and rumensin to improve ruminant feed efficiency” (Merck & Co., Inc., priority 1979, dated 1980):

Tested on: ruminants (cattle)
Assay: Propionate content of rumen fluid in cattle given medicated feed (high roughage diet, then shifted to high grain diet)
Assay type: in vivo
Procedure: The synergistic effect of the combination of thiopeptin and rumensin has been observed by administering the two compounds to ruminants on a controlled diet and taking periodic samples of rumen fluid. The amount of each of the volatile fatty acids present in the rumen fluid is measured and compared with that of animals taking no medication and also with animals given only one of the two compounds. This effect has been observed in ruminants on diets of both the high roughage and high grain types. […] Animals given the same diet but with 8.25 ppm of thiopeptin in the diet for 7 days had 25.87 mole % of propionate. Animals given 16.5 ppm of rumensin for 7 days had 25.81 mole % of propionate. […] In the same test, the animal's feed was then shifted to a high grain diet and after 2 days rumen samples again taken. The control animals had 21.73 mole % of propionate. The thiopeptin treated animals (at the same dose as the first test) had 27.31 mole % propionate. The rumensin treated animals (again at the same dose as previously) had 25.95 mole % of propionate.

[1] = high roughage diet, drug in the diet for 7 days, thiopeptin 8.25 ppm, rumensin 16.5 ppm, combination 8.25 ppm + 16.5 ppm, control animals 24.16 mole %
[2] = same test after shift to high grain diet, rumen samples after 2 days, same doses (thiopeptin 8.25 ppm, rumensin 16.5 ppm, combination of both), control animals 21.73 mole %

Compound | propionate in the rumen fluid [1] [mole %] | propionate in the rumen fluid [2] [mole %]
CC[C@@]1([C@H]2O[C@H]([C@H]3O[C@@](O)(CO)[C@H](C)C[C@@H]3C)C[C@H]2C)CC[C@H]([C@@]2(C)CC[C@]3(C[C@H](O)[C@@H](C)[C@@H]([C@H](C)[C@H](OC)[C@@H](C)C(=O)[O-])O3)O2)O1.[Na+] [rumensin, Rumensin] | 25.81 | 25.95
Thiopeptin | 25.87 | 27.31
